{"source": "patent US20090148430A1", "about": "“HUMAN OBESITY SUSCEPTIBILTY GENE ENCODING POTASSIUM ION CHANNELS AND USES THEREOF” (priority 2004, published 2009)", "origin": "cited, not measured here", "key": {"[1]": {"tested_on": "Kv channel", "conditions": "extracellular application, MASMC and intestinal epithelial cells, rats"}, "[2]": {"biological_target": "Kv1.5 (Rattus norvegicus, UniProt P19024)", "sequence (P19024 whole entry)": "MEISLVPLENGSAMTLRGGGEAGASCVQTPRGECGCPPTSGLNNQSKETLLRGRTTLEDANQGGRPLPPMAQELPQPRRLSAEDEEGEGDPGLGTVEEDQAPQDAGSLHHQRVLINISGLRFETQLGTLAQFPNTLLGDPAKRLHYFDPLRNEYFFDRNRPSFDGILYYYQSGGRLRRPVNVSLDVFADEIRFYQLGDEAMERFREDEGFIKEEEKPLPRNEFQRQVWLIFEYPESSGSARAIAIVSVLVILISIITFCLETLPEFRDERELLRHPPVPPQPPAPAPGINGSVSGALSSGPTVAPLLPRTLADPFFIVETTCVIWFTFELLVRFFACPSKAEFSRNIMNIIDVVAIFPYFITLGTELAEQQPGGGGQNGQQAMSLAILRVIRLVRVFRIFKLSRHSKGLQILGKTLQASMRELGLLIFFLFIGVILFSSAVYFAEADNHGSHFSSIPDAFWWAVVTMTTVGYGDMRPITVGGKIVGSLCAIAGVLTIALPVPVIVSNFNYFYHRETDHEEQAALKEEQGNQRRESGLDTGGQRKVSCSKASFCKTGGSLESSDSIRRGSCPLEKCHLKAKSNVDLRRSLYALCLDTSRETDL", "conditions": "independent of effects on PTK activity"}, "[3]": {"tested_on": "pig Kv1.5", "conditions": "expressed in Xenopus oocytes; read-out: IC(50) block of pig Kv1.5"}, "[4]": {"biological_target": "T1, cloned rat brain potassium channel Kv1.1 (Rattus norvegicus, UniProt P10499)", "T1 construct": "host or cells: Xenopus laevis oocytes", "T1 sequence (P10499 whole entry)": "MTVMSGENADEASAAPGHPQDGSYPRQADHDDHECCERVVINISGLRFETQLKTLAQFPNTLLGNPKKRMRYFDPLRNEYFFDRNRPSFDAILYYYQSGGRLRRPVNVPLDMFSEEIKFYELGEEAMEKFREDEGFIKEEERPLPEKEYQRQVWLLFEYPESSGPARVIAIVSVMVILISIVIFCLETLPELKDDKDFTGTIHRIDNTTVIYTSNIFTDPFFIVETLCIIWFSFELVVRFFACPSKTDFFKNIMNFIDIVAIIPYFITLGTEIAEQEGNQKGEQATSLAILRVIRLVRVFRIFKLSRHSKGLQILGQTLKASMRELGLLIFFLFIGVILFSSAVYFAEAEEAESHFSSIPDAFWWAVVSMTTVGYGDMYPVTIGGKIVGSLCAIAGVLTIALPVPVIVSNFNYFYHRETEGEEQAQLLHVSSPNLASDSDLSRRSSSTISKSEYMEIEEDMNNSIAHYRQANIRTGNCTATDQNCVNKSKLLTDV", "conditions": "Kv1.1, Xenopus laevis oocytes"}, "[5]": {"tested_on": "guinea-pig ileum"}, "[6]": {"tested_on": "Kv channel", "conditions": "vascular smooth muscle cells"}, "[7]": {"tested_on": "KV currents including Kv1.1", "conditions": "mammalian neurons, therapeutic levels"}, "[8]": {"conditions": "intranasal, healthy controls"}, "[9]": {"tested_on": "rats"}, "[10]": {"conditions": "massively obese child with leptin deficiency mutation"}}, "data": [{"compound": "Nc1ccncc1", "note": "[4-aminopyridine]", "values": [{"measurement": "effect of K+ channel blockade", "setting": "[1]", "result": "anorexic effect"}]}, {"compound": "COc1cc2ncnc(Nc3cccc(Cl)c3)c2cc1OC", "note": "[AG-1478]", "values": [{"measurement": "action on Kv1.5 currents", "setting": "[2]", "result": "open-channel blocker"}]}, {"compound": "COc1ccc(CC(=O)NCc2ccccc2-c2ccccc2C(=O)NCCc2cccnc2)cc1", "note": "[AVE0118]", "values": [{"measurement": "IC50", "setting": "[3]", "result": 5.4, "unit": "µM"}]}, {"compound": "C1CCc2nnnn2CC1", "note": "[PTZ, pentylenetetrazol]", "values": [{"measurement": "effect on potassium currents at more negative potentials", "setting": "[4]; more negative potentials", "result": "increased the potassium currents"}, {"measurement": "effect on potassium currents at more positive potentials", "setting": "[4]; more positive potentials", "result": "decreased them"}]}, {"compound": "C=C1C[C@@]2(O)[C@@H]3CC[C@@]4(C)[C@@H]5C=CC(=O)OC[C@]5(C(C)OC(C)=O)[C@@H](OC(C)=O)[C@@H](OC(C)=O)[C@@H]4[C@@]3(C)[C@H](OC(C)=O)[C@H](OC(C)=O)[C@@]2(C)C2(C(=O)OC)O[C@H]12", "note": "(some centres unmarked) [correolide]", "values": [{"measurement": "pressure threshold for eliciting peristaltic contractions", "setting": "[5]", "result": "progressive and sustained reduction"}]}, {"compound": "CCN[C@@H](C)Cc1cccc(C(F)(F)F)c1", "note": "[dexenfluramine]", "values": [{"measurement": "Kv channel activity", "setting": "[6]", "result": "decrease Kv channel activity"}]}, {"compound": "CCNC(C)Cc1cccc(C(F)(F)F)c1", "note": "(centres unmarked) [fenfluramine]", "values": [{"measurement": "Kv channel activity", "setting": "[6]", "result": "decrease Kv channel activity"}]}, {"compound": "CNCCC(Oc1ccc(C(F)(F)F)cc1)c1ccccc1", "note": "(centres unmarked) [fluoxetine]", "values": [{"measurement": "block of KV currents including Kv1.1", "setting": "[7]", "result": "can occur at therapeutic levels"}]}, {"compound": "ACTH4-10: adrenocorticotropin4-10, representing a core sequence of all melanocortins (MEHFRWG; Corticotropin; UniProt P01189 141-147, looked up, fragment)", "values": [{"measurement": "body fat mass", "setting": "[8]", "result": "reduced"}, {"measurement": "plasma leptin concentrations", "setting": "[8]", "result": "reduced"}, {"measurement": "weight", "setting": "[8]", "result": "reduced"}]}, {"compound": "Kaliotoxin: a Kv1.1 and Kv1.3 channel blocker", "values": [{"measurement": "associative learning", "setting": "[9]", "result": "improves associative learning"}]}, {"compound": "alpha-dendrotoxin", "values": [{"measurement": "peristaltic activity", "setting": "[5]", "result": "increases the peristaltic activity"}, {"measurement": "pressure threshold for eliciting peristaltic contractions", "setting": "[5]", "result": "immediate reduction"}]}, {"compound": "dendrotoxin-K", "values": [{"measurement": "peristaltic activity", "setting": "[5]", "result": "increases the peristaltic activity"}, {"measurement": "pressure threshold for eliciting peristaltic contractions", "setting": "[5]", "result": "immediate reduction"}]}, {"compound": "margatoxin (TIINVKCTSPKQCLPPCKAQFGQSAGAKCMNGKCKCYPH; UniProt P40755 1-39, looked up)", "values": [{"measurement": "peristaltic activity", "setting": "[5]", "result": "increases the peristaltic activity"}, {"measurement": "pressure threshold for eliciting peristaltic contractions", "setting": "[5]", "result": "immediate reduction"}]}, {"compound": "recombinant leptin: recombinant leptin used to treat a child with a leptin deficiency mutation", "values": [{"measurement": "treatment outcome", "setting": "[10]", "result": "treated successfully"}]}]}
